Measured values published in US20090227556A1, “RECEPTOR TYROSINE KINASE INHIBITORS COMPRISING PYRIDINE AND PYRIMIDINE DERIVATIVES” (Eisai R&D Management Co., Ltd., priority 2008, published 2009).

Tests used:
Assay type in all cases: biochemical
[1] = target: T1, VEGFR-2 tyrosine kinase (His6-VEGFR-2, cytoplasmic domain) (Homo sapiens, UniProt P35968); assay: Inhibitory activity on VEGFR-2 tyrosine kinase (HTRF); details: biotin-poly(GT) substrate
T1 construct: made in house; host or cells: Sf9 insect cells (baculovirus, pFastBac-HT)
T1 sequence (P35968 786-1356 limits assumed): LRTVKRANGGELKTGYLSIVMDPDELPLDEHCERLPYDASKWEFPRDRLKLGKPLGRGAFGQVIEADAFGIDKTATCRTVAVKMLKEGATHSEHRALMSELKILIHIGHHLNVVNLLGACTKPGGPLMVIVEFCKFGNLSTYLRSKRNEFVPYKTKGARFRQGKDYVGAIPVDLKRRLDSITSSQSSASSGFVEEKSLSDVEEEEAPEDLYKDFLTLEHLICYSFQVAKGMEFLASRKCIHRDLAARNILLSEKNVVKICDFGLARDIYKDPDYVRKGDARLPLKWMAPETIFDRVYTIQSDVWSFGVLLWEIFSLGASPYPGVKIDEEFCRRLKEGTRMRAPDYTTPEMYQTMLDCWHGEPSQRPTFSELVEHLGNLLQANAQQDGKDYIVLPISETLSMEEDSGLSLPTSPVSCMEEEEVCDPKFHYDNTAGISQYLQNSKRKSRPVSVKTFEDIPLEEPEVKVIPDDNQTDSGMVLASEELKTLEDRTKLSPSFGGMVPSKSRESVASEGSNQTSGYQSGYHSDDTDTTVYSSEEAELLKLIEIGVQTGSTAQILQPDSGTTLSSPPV
Excerpt: Cytoplasmic domain of VEGFR-2 (Genbank Accession No. L04947) is a 1.7 kb DNA fragment starting from lysine 791 and contains a stop codon, as described by Tarman et al. (Oncogene, 6(9), 1677-1683, 1991). This DNA fragment was isolated from a human placental cDNA library (obtained from Clontech Laboratories, Inc.) with two primers (obtained from TaKaRa Ex Taq™ Kit, TaKaRa) using a PCR method. This DNA fragment was cloned into a baculovirus transplace vector (pFastBac™-HT (obtained from GIBCO BRL)), to obtain a recombinant construct. An insect cell (Spodoptera frugiperda 9 (Sf9)) was transfected with it, and a VEGFR-2 recombinant baculovirus solution was prepared (preparation of the recombinant baculovirus can be found in a standard textbook (Bac-to-Bac Baculovirus Expression System (GIBCO BRL)).
To Sf9 cells (3×10^8 cells) suspended in a SF-90011 culture medium containing 2% FBS (obtained from Invitrogen Corp.), the above mentioned recombinant VEGFR-2 baculovirus solution (4 ml) was added and incubated with shaking at 27° C. for 48 hours. The recombinant VEGFR-2 baculovirus-infected cell culture was centrifuged at 4° C. at 1000 rpm for 5 minutes, and the supernatant was removed. The precipitated infected cells were suspended in 80 ml of ice-cold PBS, the suspension was centrifuged at 4° C. at 1000 rpm for 5 minutes, and the supernatant was removed. The precipitated infected cells were suspended in 40 ml of ice-cold Lysis Buffer (50 mM Tris-HCl (pH 8.5), 5 mM 2-mercaptoethanol, 100 mM KCl, 1 mM PMSF, and 1% (v/v) NP-40). This suspension was centrifuged at 4° C. at 12,000 rpm for 30 min to obtain a supernatant.
This supernatant was added to a Ni-NTA agarose column (3 ml, obtained from Qiagen) which had been equilibrated with 30 ml of Buffer A (20 mM Tris-HCl (pH 8.5), 5 mM 2-mercaptoethanol, 500 mM KCl, 20 mM imidazole, and 10% (v/v) glycerol). This column was washed sequentially with 30 ml of Buffer A, 6 ml of Buffer B (20 mM Tris-HCl (pH 8.5), 5 mM 2-mercaptoethanol, 1M KCl, and 10% (v/v) glycerol), and 6 ml of Buffer A. Then, to this column, 6 ml of Buffer C (20 mM Tris-HCl (pH 8.5), 5 mM 2-mercaptoethanol, 100 mM KCl, 100 mM imidazole, and 10% (v/v) glycerol) was added to obtain an eluate. This eluate was poured into a dialysis membrane (obtained from Spectrum Laboratories) and dialyzed with 1 liter of dialysis buffer (20 mM Tris-HCl (pH 7.5), 10% (v/v) glycerol, 1 mM DTT, 0.1 mM Na3VO4, 0.1 mM EGTA) at 4° C. overnight and stored at −80° C. until use. After the dialysis, a part of the eluate was subjected to a SDS electrophoresis, and the recombinant protein (His 6-VEGFR-2, a cytoplasmic domain of VEGFR-2 fused with 6 histidine residues on its N-terminus) detected at about 100 kDa Mw in Coomassie Brilliant Blue staining was subjected to protein quantification using BSA (obtained from Sigma Co. Ltd.) as a standard.
In each well of a 96-well round bottom plate (obtained from NUNC, product number 163320), 10 μl of a solution for kinase reaction (200 mM Hepes (pH 7.4), 80 mM MgCl2, 16 mM MnCl2, 2 mM Na3VO4), 250 ng of biotin-conjugated poly (Glu 4: Tyr 1) (biotin-poly (GT) obtained from Nihon Schering K.K.) (6 μl of 1/15 diluted solution with distilled water), 15 ng of His6-VEGFR-2 (10 μl of a 1/240 diluted solution with a 0.4% BSA solution), and a test substance solution in dimethyl sulfoxide (4 μl of 1/100 dilution with 0.1% BSA) were added to make a total volume of 30 μl. To them, 10 μl of 4 μM ATP (obtained from Sigma Co. Ltd.) diluted with distilled water was added, and the resultant was incubated for 10 minutes at 30° C., followed by addition of 10 μl of 500 mM EDTA (pH 8.0) (obtained from Wako Pure Chemical Industries, Ltd.) to obtain a kinase reaction solution.
To detect tyrosine-phosphorylated biotin-poly (GT), the Homogenous Time-Resolved Fluorescence (HTRF) method was used (Analytical Biochemistry, 269, 94-104, 1999). […]

RET = target: T2, RET (Homo sapiens, UniProt P07949); assay: Tyrosine kinase inhibition, mobility shift assay (MSA); details: recombinant human kinase
T2 construct: purchased Carna Biosciences Inc. 08-159
T2 sequence (P07949 29-1114): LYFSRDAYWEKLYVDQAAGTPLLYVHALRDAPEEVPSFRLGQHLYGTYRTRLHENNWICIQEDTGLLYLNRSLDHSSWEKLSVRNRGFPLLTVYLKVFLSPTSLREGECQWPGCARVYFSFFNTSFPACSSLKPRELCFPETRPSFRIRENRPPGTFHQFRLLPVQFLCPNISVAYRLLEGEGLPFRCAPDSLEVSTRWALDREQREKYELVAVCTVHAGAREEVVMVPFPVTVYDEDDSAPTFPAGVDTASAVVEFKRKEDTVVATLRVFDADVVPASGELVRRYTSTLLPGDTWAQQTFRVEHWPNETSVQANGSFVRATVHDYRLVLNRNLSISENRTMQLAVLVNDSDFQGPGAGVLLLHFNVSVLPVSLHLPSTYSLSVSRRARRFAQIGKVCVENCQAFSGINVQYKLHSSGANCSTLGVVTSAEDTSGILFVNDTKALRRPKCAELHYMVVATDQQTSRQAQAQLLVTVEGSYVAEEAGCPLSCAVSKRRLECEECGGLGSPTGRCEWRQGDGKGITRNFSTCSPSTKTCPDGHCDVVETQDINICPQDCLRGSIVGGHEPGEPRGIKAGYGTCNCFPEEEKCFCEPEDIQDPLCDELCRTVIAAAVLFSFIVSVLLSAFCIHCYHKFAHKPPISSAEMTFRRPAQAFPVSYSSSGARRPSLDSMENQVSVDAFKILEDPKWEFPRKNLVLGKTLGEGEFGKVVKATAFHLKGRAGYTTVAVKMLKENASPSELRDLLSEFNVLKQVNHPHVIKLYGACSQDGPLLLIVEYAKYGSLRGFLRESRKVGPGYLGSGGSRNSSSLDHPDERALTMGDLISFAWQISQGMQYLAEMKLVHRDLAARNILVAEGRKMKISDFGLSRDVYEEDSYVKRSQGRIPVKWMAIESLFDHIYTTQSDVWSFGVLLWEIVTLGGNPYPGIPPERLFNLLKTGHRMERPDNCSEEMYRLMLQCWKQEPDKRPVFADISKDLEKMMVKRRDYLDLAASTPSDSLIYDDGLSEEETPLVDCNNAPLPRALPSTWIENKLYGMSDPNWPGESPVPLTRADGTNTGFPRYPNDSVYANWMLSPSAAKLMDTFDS
Procedure: (§1) A test compound was dissolved in dimethyl sulfoxide to make a 10 mM solution, which was stored in a dark place at 4° C. until use.
(§2) Protein tyrosine kinases (recombinant human kinases) used in the study were the following products from Carna Biosciences Inc. (Kobe, Japan).
(§3) VEGFR-1 (FLT 1) (product number: 08-189) VEGFR-3 (FLT 4) (product number: 08-190) RON (product number: 08-152) RET (product number: 08-159) KIT (product number: 08-156)
(§4) Kinase activity was measured in a mobility shift assay (MSA) method (J. Biomolecular Screening, 11, 359-368, 2006) using QuickScout Screening Assist™ (Carna Biosciences Inc., commercial kit), and enzyme-linked immunoassay (ELISA).
(§5) 5 μl of the test substance solution obtained by dissolving or suspending in an assay buffer (20 mM Hepes, 0.01% Triton X-100, 1 mM dithiothreitol, pH 7.4) (4× final concentration) or 5 μl of a solvent (4% dimethyl sulfoxide-assay buffer) was dispensed into a polypropylene 384-well plate (Greiner Bio-One, product number 781280). Then, 5 μl of QuickScout Screening Assist™ MSA in an ATP/substrate/metal solution was added. Additionally, 10 μl of the kinase solution diluted with the assay buffer was added to initiate a reaction. For a blank, only 10 μl of the assay buffer was added. The kinase concentration and reaction conditions were in accordance with the protocol of QuickScout Screening Assist™ MSA. Then, the reaction was terminated by addition of 60 μl of a termination buffer of the QuickScout Screening Assist™ MSA, and the amount of a substrate (S) and a phosphorylated substrate (P) in the reaction solution were determined using LabChip3000 (Caliper Life Science, Massachusetts, U.S.A.) in accordance with the protocol of QuickScout Screening Assist™ MSA. The amounts of the S and P were represented by respective separated peak height. […] It was on the condition that the signal was determined as P/(P+S).

RON = target: T3, RON (Homo sapiens, UniProt Q04912); assay: as above; details: recombinant human kinase
T3 construct: purchased Carna Biosciences Inc. 08-152
T3 sequence (Q04912 25-1400): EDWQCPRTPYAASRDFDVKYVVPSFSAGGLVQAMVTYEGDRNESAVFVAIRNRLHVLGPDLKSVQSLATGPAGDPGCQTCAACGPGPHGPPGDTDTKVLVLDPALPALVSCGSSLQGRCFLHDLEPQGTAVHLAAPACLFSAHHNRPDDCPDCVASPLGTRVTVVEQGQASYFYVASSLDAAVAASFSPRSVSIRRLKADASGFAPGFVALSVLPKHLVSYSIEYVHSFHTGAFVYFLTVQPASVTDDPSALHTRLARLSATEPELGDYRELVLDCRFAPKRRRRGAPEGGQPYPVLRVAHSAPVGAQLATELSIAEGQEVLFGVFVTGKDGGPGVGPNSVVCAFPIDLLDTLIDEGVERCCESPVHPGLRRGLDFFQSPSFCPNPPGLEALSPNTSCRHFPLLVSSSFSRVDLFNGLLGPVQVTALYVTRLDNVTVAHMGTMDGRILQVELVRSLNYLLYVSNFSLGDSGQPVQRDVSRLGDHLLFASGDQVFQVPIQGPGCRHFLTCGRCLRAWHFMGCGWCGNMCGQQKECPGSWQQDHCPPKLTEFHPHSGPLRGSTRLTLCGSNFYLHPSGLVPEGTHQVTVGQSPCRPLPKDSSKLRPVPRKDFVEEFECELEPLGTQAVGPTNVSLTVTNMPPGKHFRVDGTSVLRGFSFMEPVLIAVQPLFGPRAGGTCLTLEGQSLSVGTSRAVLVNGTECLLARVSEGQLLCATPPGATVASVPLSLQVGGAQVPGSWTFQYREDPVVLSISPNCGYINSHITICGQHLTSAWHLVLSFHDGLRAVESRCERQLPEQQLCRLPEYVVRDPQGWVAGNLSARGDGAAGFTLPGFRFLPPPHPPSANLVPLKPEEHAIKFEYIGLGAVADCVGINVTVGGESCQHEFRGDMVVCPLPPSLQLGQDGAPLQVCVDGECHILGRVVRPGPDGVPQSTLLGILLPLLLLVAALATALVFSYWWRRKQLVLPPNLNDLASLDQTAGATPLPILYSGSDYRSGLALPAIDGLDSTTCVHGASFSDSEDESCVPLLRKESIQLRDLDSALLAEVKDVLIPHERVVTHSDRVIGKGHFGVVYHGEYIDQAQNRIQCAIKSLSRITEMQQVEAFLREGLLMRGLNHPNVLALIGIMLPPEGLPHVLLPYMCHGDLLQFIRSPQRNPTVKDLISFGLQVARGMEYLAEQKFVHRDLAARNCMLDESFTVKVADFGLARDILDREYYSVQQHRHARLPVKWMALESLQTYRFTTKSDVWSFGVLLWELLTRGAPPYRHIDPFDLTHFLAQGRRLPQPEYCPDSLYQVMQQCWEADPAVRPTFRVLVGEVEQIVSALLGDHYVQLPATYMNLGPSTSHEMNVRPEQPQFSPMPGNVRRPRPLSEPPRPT
Procedure: as §1, §2, §3, §4, §5

VEGFR-3 (FLT 4) = target: T4, VEGFR-3 (FLT 4) (Homo sapiens, UniProt P35916); assay: as above; details: recombinant human kinase
T4 construct: purchased Carna Biosciences Inc. 08-190
T4 sequence (P35916 25-1363): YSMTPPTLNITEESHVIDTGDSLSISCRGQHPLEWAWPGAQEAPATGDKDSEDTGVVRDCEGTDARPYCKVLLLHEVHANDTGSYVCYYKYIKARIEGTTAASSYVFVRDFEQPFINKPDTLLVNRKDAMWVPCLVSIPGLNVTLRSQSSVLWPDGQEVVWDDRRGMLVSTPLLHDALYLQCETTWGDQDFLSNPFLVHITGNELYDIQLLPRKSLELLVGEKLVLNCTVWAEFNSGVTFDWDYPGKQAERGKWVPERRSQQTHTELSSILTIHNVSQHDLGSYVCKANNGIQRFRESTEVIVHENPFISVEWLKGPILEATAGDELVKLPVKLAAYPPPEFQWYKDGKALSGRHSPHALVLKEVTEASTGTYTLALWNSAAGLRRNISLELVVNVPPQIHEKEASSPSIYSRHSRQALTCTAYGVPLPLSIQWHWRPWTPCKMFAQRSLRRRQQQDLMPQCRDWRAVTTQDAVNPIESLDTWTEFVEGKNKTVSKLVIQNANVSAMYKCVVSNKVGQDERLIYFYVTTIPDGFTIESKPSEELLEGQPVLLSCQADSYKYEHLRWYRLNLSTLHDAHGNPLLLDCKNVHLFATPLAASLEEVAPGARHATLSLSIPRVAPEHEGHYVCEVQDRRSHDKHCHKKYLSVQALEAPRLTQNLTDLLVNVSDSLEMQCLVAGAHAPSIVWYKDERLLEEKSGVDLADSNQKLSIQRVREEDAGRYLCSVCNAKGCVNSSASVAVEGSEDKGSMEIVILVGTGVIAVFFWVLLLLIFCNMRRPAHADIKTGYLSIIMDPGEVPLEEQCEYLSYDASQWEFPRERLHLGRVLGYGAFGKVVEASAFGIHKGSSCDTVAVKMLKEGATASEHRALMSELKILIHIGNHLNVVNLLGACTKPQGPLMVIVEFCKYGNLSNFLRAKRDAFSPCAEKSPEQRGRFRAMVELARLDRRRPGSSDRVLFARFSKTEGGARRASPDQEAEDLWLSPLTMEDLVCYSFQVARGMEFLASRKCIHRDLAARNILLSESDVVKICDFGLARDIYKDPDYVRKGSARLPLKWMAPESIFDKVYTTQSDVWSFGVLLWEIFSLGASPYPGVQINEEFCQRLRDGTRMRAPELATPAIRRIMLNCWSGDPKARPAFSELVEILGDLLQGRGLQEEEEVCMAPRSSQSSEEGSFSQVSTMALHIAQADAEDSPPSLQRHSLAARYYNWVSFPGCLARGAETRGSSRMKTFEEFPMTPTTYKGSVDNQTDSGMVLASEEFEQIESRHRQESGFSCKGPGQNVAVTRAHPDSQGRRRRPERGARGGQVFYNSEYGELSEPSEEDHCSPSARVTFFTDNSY
Procedure: as §1, §2, §3, §4, §5

Row | Compound | IC50 [1] | IC50 (RET) | IC50 (RON) | IC50 (VEGFR-3 (FLT 4))
1 | CN1CCN(C2CCN(C(=O)Nc3cc(Oc4cc(F)c(NC(=O)C5(C(=O)Nc6ccc(F)cc6)CC5)cc4F)ccn3)CC2)CC1 [N-(2,5-Difluoro-4-{[2-({[4-(4-methylpiperazin-1-yl)piperidin-1-yl]carbonyl}amino)pyridin-4-yl]oxy}phenyl)-N′-(4-fluorophenyl)cyclopropane-1,1-dicarboxamide] | 100 nM | 38 nM | 2.4 nM | 22 nM
2 | O=C(Nc1cc(Oc2cc(F)c(NC(=O)C3(C(=O)Nc4ccc(F)cc4)CC3)cc2F)ccn1)N1CC(O)C1 [N-{2,5-Difluoro-4-[(2-{[(3-hydroxyazetidin-1-yl)carbonyl]amino}pyridin-4-yl)oxy]phenyl}-N′-(4-fluorophenyl)cyclopropane-1,1-dicarboxamide] | 9.5 nM | 44 nM | 4.6 nM | 10 nM
3 | O=C(Nc1cc(Oc2cc(F)c(NC(=O)C3(C(=O)Nc4ccc(F)cc4)CC3)cc2F)ccn1)N1CC(CO)C1 [N-(2,5-Difluoro-4-{[2-({[3-(hydroxymethyl)azetidin-1-yl]carbonyl}amino)pyridin-4-yl]oxy}phenyl)-N′-(4-fluorophenyl)cyclopropane-1,1-dicarboxamide] | 10 nM | 28 nM | 2.6 nM | 6.2 nM
4 | O=C(Nc1cc(Oc2ccc(NC(=O)C3(C(=O)Nc4ccc(F)cc4)CC3)c(F)c2)ccn1)N1CCC1 [N-[4-({2-[(Azetidin-1-ylcarbonyl)amino]pyridin-4-yl}oxy)-2-fluorophenyl]-N′-(4-fluorophenyl)cyclopropane-1,1-dicarboxamide] | 59 nM | 99 nM | 26 nM | 36 nM
5 | CN1CCC(N(C)C(=O)Nc2cc(Oc3cc(F)c(NC(=O)C4(C(=O)Nc5ccc(F)cc5)CC4)cc3F)ccn2)CC1 [N-(2,5-Difluoro-4-{[2-({[methyl(1-methylpiperidin-4-yl)amino]carbonyl}amino)pyridin-4-yl]oxy}phenyl)-N′-(4-fluorophenyl)cyclopropane-1,1-dicarboxamide] | 95 nM | 36 nM | 1.8 nM | 11 nM
